Reference: ChEMBL document CHEMBL5696442, “Discovery of type II inhibitors of TGFβ-activated kinase 1 (TAK1) and mitogen-activated protein kinase kinase kinase kinase 2 (MAP4K2)” (J Med Chem, 2015)
Calls of active or inactive are those of the source. The calls are words filed in the database; no cut-off is given here.

Tests used:
[1] = biological target: T1, Phosphorylase b kinase gamma catalytic chain, liver/testis isoform (Homo sapiens) (UniProt P15735); experiment: Inhibition of PHKG2 (unknown origin) at 1 uM by Ambit Kinomescan binding assay relative to control; values are per cent of control
T1 sequence (whole entry): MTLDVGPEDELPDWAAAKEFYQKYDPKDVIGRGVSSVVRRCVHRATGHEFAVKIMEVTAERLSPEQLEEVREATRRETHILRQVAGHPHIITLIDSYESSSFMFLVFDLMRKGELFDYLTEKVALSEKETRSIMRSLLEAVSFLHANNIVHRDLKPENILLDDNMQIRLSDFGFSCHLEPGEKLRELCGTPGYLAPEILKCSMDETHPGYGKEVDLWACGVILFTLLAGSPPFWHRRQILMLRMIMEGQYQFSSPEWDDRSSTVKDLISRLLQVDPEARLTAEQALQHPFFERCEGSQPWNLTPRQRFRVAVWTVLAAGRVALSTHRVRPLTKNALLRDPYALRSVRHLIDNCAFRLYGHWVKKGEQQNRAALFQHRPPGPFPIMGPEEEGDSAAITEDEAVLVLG

[2] = Inhibition of KHS1 (unknown origin) Lys1 labeling site by KiNativ Profiling analysis; parameters: species or system Homo sapiens
[3] = biological target: Cyclin-dependent kinase 11B (Homo sapiens) (UniProt P21127); experiment: Inhibition of CDK11 (unknown origin) at 1 uM by Ambit Kinomescan binding assay relative to control
Cyclin-dependent kinase 11B (Homo sapiens), sequence (P21127 whole entry): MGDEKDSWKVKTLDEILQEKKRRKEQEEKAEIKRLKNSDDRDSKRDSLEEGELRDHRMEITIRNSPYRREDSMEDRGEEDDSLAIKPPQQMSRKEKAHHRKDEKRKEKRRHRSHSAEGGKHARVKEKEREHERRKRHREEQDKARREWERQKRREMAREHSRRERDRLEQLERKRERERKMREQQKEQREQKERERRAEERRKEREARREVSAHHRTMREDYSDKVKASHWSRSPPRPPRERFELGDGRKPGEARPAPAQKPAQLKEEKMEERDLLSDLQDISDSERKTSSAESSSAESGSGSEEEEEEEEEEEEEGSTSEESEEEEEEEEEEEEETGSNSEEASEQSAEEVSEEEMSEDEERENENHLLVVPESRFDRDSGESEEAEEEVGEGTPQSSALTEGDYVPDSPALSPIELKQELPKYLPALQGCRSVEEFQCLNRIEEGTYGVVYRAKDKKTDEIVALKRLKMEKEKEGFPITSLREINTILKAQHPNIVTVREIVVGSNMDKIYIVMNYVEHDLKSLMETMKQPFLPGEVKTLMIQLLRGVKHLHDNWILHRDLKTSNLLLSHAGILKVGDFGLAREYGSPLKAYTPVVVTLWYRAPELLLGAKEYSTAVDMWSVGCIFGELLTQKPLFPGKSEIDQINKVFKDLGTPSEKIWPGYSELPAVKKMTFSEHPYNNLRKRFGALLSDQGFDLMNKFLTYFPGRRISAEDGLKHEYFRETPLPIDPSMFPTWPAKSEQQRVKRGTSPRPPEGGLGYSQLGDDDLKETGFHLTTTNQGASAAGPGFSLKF

[4] = biological target: T2, Mitogen-activated protein kinase kinase kinase kinase 2 (Homo sapiens) (UniProt Q12851); experiment: Inhibition of MAP4K2 (GCK) Lys2 labeling site in human A-375 cells at 0.05 uM by KiNativ Profiling analysis relative to control; type: cell-based
T2 sequence (whole entry): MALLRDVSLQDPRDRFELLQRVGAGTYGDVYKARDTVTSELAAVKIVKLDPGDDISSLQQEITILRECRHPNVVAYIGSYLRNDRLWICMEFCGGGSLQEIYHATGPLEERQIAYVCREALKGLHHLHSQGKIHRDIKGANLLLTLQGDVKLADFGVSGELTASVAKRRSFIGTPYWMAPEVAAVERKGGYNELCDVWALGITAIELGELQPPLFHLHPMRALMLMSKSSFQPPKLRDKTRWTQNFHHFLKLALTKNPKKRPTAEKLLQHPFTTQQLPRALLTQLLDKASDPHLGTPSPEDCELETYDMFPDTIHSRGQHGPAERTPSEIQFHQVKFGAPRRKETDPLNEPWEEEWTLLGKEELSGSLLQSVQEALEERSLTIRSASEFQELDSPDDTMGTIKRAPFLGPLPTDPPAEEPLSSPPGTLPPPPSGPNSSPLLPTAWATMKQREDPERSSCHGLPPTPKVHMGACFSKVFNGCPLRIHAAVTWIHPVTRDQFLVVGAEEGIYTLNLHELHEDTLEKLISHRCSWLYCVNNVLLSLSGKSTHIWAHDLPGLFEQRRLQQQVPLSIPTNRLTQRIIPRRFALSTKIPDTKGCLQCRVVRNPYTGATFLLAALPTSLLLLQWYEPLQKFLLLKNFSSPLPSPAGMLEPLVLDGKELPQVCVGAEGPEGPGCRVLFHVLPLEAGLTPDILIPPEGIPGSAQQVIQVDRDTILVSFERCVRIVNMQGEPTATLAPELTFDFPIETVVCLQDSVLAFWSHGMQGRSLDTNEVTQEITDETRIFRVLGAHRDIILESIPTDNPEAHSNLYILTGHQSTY

[5] = biological target: Phosphatidylinositol 4-phosphate 3-kinase C2 domain-containing subunit beta (Homo sapiens) (UniProt O00750); experiment: Inhibition of PIK3C2B ATP labeling site in human Huh-7 cells at 1 uM by KiNativ Profiling analysis relative to control; type: cell-based
Phosphatidylinositol 4-phosphate 3-kinase C2 domain-containing subunit beta (Homo sapiens), sequence (O00750 whole entry, the tested form may be a part, canonical isoform): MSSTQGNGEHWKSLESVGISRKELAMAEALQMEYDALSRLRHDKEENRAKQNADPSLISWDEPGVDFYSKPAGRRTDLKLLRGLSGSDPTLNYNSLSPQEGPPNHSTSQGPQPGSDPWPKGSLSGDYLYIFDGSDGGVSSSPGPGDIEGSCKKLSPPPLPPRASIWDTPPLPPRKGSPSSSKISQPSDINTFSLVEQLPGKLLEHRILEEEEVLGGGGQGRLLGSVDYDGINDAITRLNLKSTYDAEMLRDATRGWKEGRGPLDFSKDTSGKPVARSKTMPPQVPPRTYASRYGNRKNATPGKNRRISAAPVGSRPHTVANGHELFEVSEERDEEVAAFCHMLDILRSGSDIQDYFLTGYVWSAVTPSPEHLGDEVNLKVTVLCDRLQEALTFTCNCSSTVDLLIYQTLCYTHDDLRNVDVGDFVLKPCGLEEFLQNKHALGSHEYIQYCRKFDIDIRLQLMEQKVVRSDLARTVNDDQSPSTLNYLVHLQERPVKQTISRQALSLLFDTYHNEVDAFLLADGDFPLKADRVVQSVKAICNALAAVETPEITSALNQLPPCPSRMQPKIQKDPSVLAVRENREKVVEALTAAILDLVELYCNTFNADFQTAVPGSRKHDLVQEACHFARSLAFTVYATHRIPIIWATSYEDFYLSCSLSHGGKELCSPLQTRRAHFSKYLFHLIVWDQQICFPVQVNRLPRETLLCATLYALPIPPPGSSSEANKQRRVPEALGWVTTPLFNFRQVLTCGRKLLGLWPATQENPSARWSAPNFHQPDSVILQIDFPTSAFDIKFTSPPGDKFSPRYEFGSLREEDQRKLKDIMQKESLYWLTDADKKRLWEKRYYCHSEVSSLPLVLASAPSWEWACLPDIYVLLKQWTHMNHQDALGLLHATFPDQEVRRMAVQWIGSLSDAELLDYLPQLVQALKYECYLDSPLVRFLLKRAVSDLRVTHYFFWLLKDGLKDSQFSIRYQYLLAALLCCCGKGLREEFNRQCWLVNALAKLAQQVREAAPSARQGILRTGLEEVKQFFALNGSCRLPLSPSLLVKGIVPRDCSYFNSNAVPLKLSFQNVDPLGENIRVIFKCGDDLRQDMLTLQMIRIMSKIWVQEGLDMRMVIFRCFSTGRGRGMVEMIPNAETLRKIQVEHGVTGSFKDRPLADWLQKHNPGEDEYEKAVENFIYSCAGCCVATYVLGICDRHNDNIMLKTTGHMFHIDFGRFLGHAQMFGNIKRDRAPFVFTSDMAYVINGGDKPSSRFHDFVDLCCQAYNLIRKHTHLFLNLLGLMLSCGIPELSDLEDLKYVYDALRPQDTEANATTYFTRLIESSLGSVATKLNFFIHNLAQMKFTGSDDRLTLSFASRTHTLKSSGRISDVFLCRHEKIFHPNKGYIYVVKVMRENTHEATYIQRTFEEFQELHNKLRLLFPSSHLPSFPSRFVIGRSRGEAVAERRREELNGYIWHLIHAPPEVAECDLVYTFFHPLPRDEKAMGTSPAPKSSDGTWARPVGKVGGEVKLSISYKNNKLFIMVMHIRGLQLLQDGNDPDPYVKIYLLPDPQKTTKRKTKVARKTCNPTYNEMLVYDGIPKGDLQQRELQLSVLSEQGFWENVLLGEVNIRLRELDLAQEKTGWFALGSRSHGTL

[6] = biological target: T1, Phosphorylase b kinase gamma catalytic chain, liver/testis isoform (Homo sapiens); experiment: Inhibition of PHKG2 (unknown origin) at 10 uM by Ambit Kinomescan binding assay
[7] = biological target: T3, Receptor-interacting serine/threonine-protein kinase 4 (Homo sapiens) (UniProt P57078); experiment: Inhibition of RIPK4 (unknown origin) at 10 uM by Ambit Kinomescan binding assay
T3 sequence (whole entry): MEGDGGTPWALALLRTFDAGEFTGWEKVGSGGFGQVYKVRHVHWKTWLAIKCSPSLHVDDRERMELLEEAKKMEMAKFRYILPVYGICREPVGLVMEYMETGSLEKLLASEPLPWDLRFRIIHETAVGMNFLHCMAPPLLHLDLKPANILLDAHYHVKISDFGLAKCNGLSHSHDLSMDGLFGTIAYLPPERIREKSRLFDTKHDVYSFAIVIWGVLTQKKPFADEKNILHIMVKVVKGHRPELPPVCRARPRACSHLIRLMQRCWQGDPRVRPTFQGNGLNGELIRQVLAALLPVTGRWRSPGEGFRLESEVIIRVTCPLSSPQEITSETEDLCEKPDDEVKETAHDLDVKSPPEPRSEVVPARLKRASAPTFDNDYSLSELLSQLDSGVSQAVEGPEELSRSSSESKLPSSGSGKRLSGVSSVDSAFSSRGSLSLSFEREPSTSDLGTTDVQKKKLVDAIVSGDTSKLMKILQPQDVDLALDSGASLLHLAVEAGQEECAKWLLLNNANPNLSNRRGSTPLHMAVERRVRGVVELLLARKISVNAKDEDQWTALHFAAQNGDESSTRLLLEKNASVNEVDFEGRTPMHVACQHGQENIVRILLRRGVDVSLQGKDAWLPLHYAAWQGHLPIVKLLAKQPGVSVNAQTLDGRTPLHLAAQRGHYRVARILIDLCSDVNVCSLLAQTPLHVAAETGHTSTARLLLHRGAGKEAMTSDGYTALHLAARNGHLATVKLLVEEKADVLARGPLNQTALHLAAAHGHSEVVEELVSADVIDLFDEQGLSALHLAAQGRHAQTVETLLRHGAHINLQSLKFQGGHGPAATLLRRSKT

[8] = biological target: T4, Serine/threonine-protein kinase 3 (Homo sapiens) (UniProt Q13188); experiment: Inhibition of MST2 Lys1 labeling site in human Huh-7 cells at 1 uM by KiNativ Profiling analysis relative to control; type: cell-based
T4 sequence (whole entry): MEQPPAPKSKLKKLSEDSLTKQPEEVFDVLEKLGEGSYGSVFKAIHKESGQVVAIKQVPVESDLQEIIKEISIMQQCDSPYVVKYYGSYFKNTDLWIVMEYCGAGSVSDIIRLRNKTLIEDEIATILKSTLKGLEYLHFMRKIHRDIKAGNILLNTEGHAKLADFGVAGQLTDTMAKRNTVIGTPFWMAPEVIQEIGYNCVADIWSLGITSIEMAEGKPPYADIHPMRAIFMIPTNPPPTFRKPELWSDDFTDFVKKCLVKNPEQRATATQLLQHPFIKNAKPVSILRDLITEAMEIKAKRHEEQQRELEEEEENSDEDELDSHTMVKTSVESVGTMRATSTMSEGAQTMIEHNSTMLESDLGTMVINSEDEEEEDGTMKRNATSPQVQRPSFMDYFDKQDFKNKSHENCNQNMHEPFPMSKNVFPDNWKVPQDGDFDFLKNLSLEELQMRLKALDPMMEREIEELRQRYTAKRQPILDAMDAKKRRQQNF

CCN1CCN(Cc2ccc(NC(=O)c3ccc(C)c(/C=C/c4cnc5[nH]ccc5c4OC)c3)cc2C(F)(F)F)CC1
residual activity [1]: 100%
IC50 [2]: 1200 nM
inhibition [3]: 27%

CCN1CCN(Cc2ccc(NC(=O)c3ccc(C)c(Oc4ccnc5[nH]ccc45)c3)cc2C(F)(F)F)CC1
inhibition [4]: 95.1%
inhibition [5]: -9.4%
inhibition [6]: inactive
inhibition [7]: inactive

CNc1cc(Oc2cc(C(=O)Nc3cc(N4CCN(C)CC4)cc(C(F)(F)F)c3)ccc2C)ncn1
inhibition [8]: 5.3%
